According to PubChem BioAssay (NCI):
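Protocol summary: plate cells (96-well), add compound at 5 concentrations, incubate 48 h, interpolate endpoints linearly. The concentration for full growth arrest is given as TGI.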

Experiments:
Assay in all cases: NCI tumour cell line growth inhibition, 48 h
786-0 renal = system: 786-0 renal
A498 renal = system: A498 renal
A549 NSCLC = system: A549 NSCLC
ACHN renal = system: ACHN renal
CAKI-1 renal = system: CAKI-1 renal
CCRF-CEM leukemia = system: CCRF-CEM leukemia
COLO 205 colon = system: COLO 205 colon
DU-145 prostate = system: DU-145 prostate
EKVX NSCLC = system: EKVX NSCLC
HCC-2998 colon = system: HCC-2998 colon
HCT-116 colon = system: HCT-116 colon
HCT-15 colon = system: HCT-15 colon
HL-60(TB) leukemia = system: HL-60(TB) leukemia
HOP-62 NSCLC = system: HOP-62 NSCLC
HOP-92 NSCLC = system: HOP-92 NSCLC
HS 578T breast = system: HS 578T breast
HT29 colon = system: HT29 colon
IGROV1 ovarian = system: IGROV1 ovarian
K-562 leukemia = system: K-562 leukemia
KM12 colon = system: KM12 colon
LOX IMVI melanoma = system: LOX IMVI melanoma
M14 melanoma = system: M14 melanoma
MALME-3M melanoma = system: MALME-3M melanoma
MCF7 breast = system: MCF7 breast
MDA-MB-231 breast = system: MDA-MB-231 breast
MDA-MB-435 = system: MDA-MB-435
MDA-N = system: MDA-N
MOLT-4 leukemia = system: MOLT-4 leukemia
NCI-H226 lung = system: NCI-H226 lung
NCI-H23 lung = system: NCI-H23 lung
NCI-H460 lung = system: NCI-H460 lung
NCI-H522 lung = system: NCI-H522 lung
NCI/ADR-RES ovarian = system: NCI/ADR-RES ovarian
OVCAR-3 ovarian = system: OVCAR-3 ovarian
OVCAR-4 ovarian = system: OVCAR-4 ovarian
OVCAR-8 ovarian = system: OVCAR-8 ovarian
PC-3 prostate = system: PC-3 prostate
RPMI-8226 leukemia = system: RPMI-8226 leukemia
RXF 393 renal = system: RXF 393 renal
SF-268 CNS = system: SF-268 CNS
SF-295 CNS = system: SF-295 CNS
SF-539 CNS = system: SF-539 CNS
SK-MEL-2 melanoma = system: SK-MEL-2 melanoma
SK-MEL-28 melanoma = system: SK-MEL-28 melanoma
SK-MEL-5 melanoma = system: SK-MEL-5 melanoma
SK-OV-3 ovarian = system: SK-OV-3 ovarian
SN12C renal = system: SN12C renal
SNB-19 CNS = system: SNB-19 CNS
SNB-75 CNS = system: SNB-75 CNS
SR leukemia = system: SR leukemia
SW-620 colon = system: SW-620 colon
T-47D breast = system: T-47D breast
TK-10 renal = system: TK-10 renal
U251 CNS = system: U251 CNS
UACC-257 melanoma = system: UACC-257 melanoma
UACC-62 melanoma = system: UACC-62 melanoma
UO-31 renal = system: UO-31 renal

Measured: TGI

CSc1ccc(NC(=S)NN(C)C)cc1
> 10 µM: 786-0 renal | A498 renal | A549 NSCLC | ACHN renal | CAKI-1 renal | CCRF-CEM leukemia | COLO 205 colon | DU-145 prostate | EKVX NSCLC | HCC-2998 colon | HCT-116 colon | HCT-15 colon | HL-60(TB) leukemia | HOP-62 NSCLC | HOP-92 NSCLC | HS 578T breast | HT29 colon | IGROV1 ovarian | K-562 leukemia | KM12 colon | LOX IMVI melanoma | M14 melanoma | MALME-3M melanoma | MCF7 breast | MDA-MB-231 breast | MDA-MB-435 | MDA-N | MOLT-4 leukemia | NCI-H226 lung | NCI-H23 lung | NCI-H460 lung | NCI-H522 lung | NCI/ADR-RES ovarian | OVCAR-3 ovarian | OVCAR-4 ovarian | OVCAR-8 ovarian | PC-3 prostate | RPMI-8226 leukemia | RXF 393 renal | SF-268 CNS | SF-295 CNS | SF-539 CNS | SK-MEL-2 melanoma | SK-MEL-28 melanoma | SK-MEL-5 melanoma | SK-OV-3 ovarian | SN12C renal | SNB-19 CNS | SNB-75 CNS | SR leukemia | SW-620 colon | T-47D breast | TK-10 renal | U251 CNS | UACC-257 melanoma | UACC-62 melanoma | UO-31 renal
